Target: T1, Pol-β (Homo sapiens, UniProt P06746)
T1 construct: gene POLB; purified protein
Assay: strand-displacement synthesis on […]-labelled 63-mer F-DNA, denaturing gel
Type: biochemical
Details: pH 7.5, 30 mM KCl, 8 mM MgCl2, 37 °C, 30 min; 5 nM Pol-β, 2 nM APE1 (pre-incision), 2.5 nM DNA

With “[5-(4-amino-6-iodo-2-oxo-5,6-dihydropyrimidin-1-yl)-3-hydroxy-oxolan-2-yl] methoxyphosphonic acid [NSC-124854]” the IC50 was 5.3 µM.

From PMC3032781, “DNA Polymerase β as a Novel Target for Chemotherapeutic Intervention of Colorectal Cancer” (PLoS ONE, 2011)
